Test results published in patent US20250127863A1, “ANTIMICROBIAL PEPTIDE FOR ONYCHOMYCOSIS” (CBMR SCIENTIFIC NANOSCIENCE B.V., priority 2019, published 2025).
No end group written: not given here.

How the values were obtained:
onychomycosis = assay: Application of the composition by human subjects (Example 1); assay type: in vivo
Description: The concentration of the antimicrobial peptide in the composition used for the treatment of onychomycosis by human subjects, was 30 mg/l ([…]).
The composition used comprises the antimicrobial peptide hLF1-11 (GRRRRSVQWCA) [SEQ ID NO: 3] and is a clear colorless liquid in a (glass) bottle with a dropper to facilitate application to the nail. […] The antimicrobial peptide is completely biodegradable.
The composition is applied twice a day to the affected nail and cuticle, preferably in the morning and in the evening. Hold the tip of the dropper above the nail. Avoid direct contact between the dropper providing the solution and the infected nail to keep liquid clean. Squeeze the tube gently and drop the drop onto the cuticle/proximal fold. It is preferred to cover the whole nail with a thin layer of the solution. In particular cases it is important that the solution is also applied under the edge of the affected nail (on the distal nail bed) e.g. with a cotton swab, in particular when the infection started from there. Allow the nail to dry for a few minutes after application. The treatment duration varies depending on the severity of the infection; in many cases 3-6 months of treatment may be necessary. For optimal results, continue the treatment until a new healthy nail has fully grown. […] Reference is made to FIG. 1.

C. albicans (WT) = assay: MIC90 growth inhibition; assay type: cell-based, Candida albicans; settings: RPMI 1640 one-fourth strength
Description: (§1) The minimum inhibitory concentration (MIC) value is defined as the lowest sample concentration that inhibited growth. In the Examples, the MIC90 value is presented, which MIC90 values are determined according to established methods known to the person with the skills in the relevant art. Experiments; 1×10E5 CFU of various strains/ml were incubated for 24-48 h at 37° C. in 4× diluted medium of RPMI 1640 with the indicated concentrations of antimicrobial peptide hLF(1-11) [SEQ ID NO: 3]. As controls various strains cells were incubated for 24-48 h at 37° C. with no agent (antimicrobial peptide), and subsequently, growth of the microbial organism (e.g. yeast, bacterium) was monitored by using spectrophotometry with a spectrophotometer at 620 nm. […] ND=Not done. Representative single assay data are listed rather than a range, for clarity reasons and for ease of comparison of peptide efficacy. The MIC was calculated as the lowest antibiotic (antimicrobial peptide) concentration at which growth of the assessed yeast or bacterium (microbe) was inhibited (inhibitory concentration IC90).

C. albicans AA (LUMC) = assay: MIC90 growth inhibition; assay type: cell-based, Candida albicans; settings: RPMI 1640 one-fourth strength
Description: as §1

C. albicans ATCC 10231 = assay: MIC90 growth inhibition; assay type: cell-based, Candida albicans; settings: RPMI 1640 one-fourth strength
Description: as §1

C. albicans CBS-562 = assay: MIC90 growth inhibition; assay type: cell-based, Candida albicans; settings: RPMI 1640 one-fourth strength
Description: as §1

C. albicans CMC-1968 = assay: MIC90 growth inhibition; assay type: cell-based, Candida albicans; settings: RPMI 1640 one-fourth strength
Description: as §1

C. glabrata (LUMC) = assay: MIC90 growth inhibition; assay type: cell-based, Candida glabrata; settings: RPMI 1640 one-fourth strength
Description: as §1

C. glabrata CBS-138 = assay: MIC90 growth inhibition; assay type: cell-based, Candida glabrata; settings: RPMI 1640 one-fourth strength
Description: as §1

C. glabrata CMC-1933 = assay: MIC90 growth inhibition; assay type: cell-based, Candida glabrata; settings: RPMI 1640 one-fourth strength
Description: as §1

C. glabrata spp. = assay: MIC90 growth inhibition; assay type: cell-based, Candida glabrata; settings: RPMI 1640 one-fourth strength
Description: as §1

C. krusei (LUMC) = assay: MIC90 growth inhibition; assay type: cell-based, Candida krusei; settings: RPMI 1640 one-fourth strength
Description: as §1

C. krusei CMC-2002 = assay: MIC90 growth inhibition; assay type: cell-based, Candida krusei; settings: RPMI 1640 one-fourth strength
Description: as §1

C. krusei spp = assay: MIC90 growth inhibition; assay type: cell-based, Candida krusei; settings: RPMI 1640 one-fourth strength
Description: as §1

C. lusitaniae CMC-1944 = assay: MIC90 growth inhibition; assay type: cell-based, Candida lusitaniae; settings: RPMI 1640 one-fourth strength
Description: as §1

C. metapsilosis = assay: MIC90 growth inhibition; assay type: cell-based, Candida metapsilosis; settings: RPMI 1640 one-fourth strength
Description: as §1

C. parapsilosis CBS #57 = assay: MIC90 growth inhibition; assay type: cell-based, Candida parapsilosis; settings: RPMI 1640 one-fourth strength
Description: as §1

C. parapsilosis CBS #61 = assay: MIC90 growth inhibition; assay type: cell-based, Candida parapsilosis; settings: RPMI 1640 one-fourth strength
Description: as §1

C. parapsilosis CBS #7 = assay: MIC90 growth inhibition; assay type: cell-based, Candida parapsilosis; settings: RPMI 1640 one-fourth strength
Description: as §1

C. parapsilosis CBS-604 = assay: MIC90 growth inhibition; assay type: cell-based, Candida parapsilosis; settings: RPMI 1640 one-fourth strength
Description: as §1

C. parapsilosis CMC-2039 = assay: MIC90 growth inhibition; assay type: cell-based, Candida parapsilosis; settings: RPMI 1640 one-fourth strength
Description: as §1

C. tropicalis (LUMC) = assay: MIC90 growth inhibition; assay type: cell-based, Candida tropicalis; settings: RPMI 1640 one-fourth strength
Description: as §1

C. tropicalis CBS-94 = assay: MIC90 growth inhibition; assay type: cell-based, Candida tropicalis; settings: RPMI 1640 one-fourth strength
Description: as §1

C. tropicalis CMC-2041 = assay: MIC90 growth inhibition; assay type: cell-based, Candida tropicalis; settings: RPMI 1640 one-fourth strength
Description: as §1

C. tropicalis spp. = assay: MIC90 growth inhibition; assay type: cell-based, Candida tropicalis; settings: RPMI 1640 one-fourth strength
Description: as §1

Aspergillus spp = assay: MIC90 growth inhibition; assay type: cell-based; settings: RPMI 1640 one-fourth strength
Description: as §1

Botrytis cinerea = assay: MIC90 growth inhibition; assay type: cell-based; settings: RPMI 1640 one-fourth strength
Description: as §1

Rhizoctonia solani = assay: IC50 growth inhibition; assay type: cell-based
Sclerotium rolfsii = assay: IC50 growth inhibition; assay type: cell-based
S. epidermidis Type 2163 = assay: MIC90 growth inhibition; assay type: cell-based, Staphylococcus epidermidis; settings: RPMI 1640 one-fourth strength
Description: as §1

GRRRRSVQWCA [hLF1-11, Gly Arg Arg Arg Arg Ser Val Gln Trp Cys Ala]
recurrent infection in treated patients (onychomycosis; after 4 months or even longer): do not show signs of recurrent infection
time to first visible improvements (onychomycosis; twice daily application, 30 mg/l composition): two to four
Inhibitory concentration MIC (MIC90) (C. albicans (WT)): MIC = 25 μg/ml
Inhibitory concentration MIC (MIC90) (C. albicans AA (LUMC)): MIC = 25 μg/mL
Inhibitory concentration MIC (MIC90) (C. albicans ATCC 10231): MIC = 25 μg/mL
Inhibitory concentration MIC (MIC90) (C. albicans CBS-562): MIC = 25 μg/mL
Inhibitory concentration MIC (MIC90) (C. albicans CMC-1968): MIC = 25 μg/mL
Inhibitory concentration MIC (MIC90) (C. glabrata (LUMC)): MIC = 25 μg/mL
Inhibitory concentration MIC (MIC90) (C. glabrata CBS-138): MIC = 25 μg/mL
Inhibitory concentration MIC (MIC90) (C. glabrata CMC-1933): MIC = 25 μg/mL
Inhibitory concentration MIC (MIC90) (C. glabrata spp.): MIC = 25 μg/mL
Inhibitory concentration MIC (MIC90) (C. krusei (LUMC)): MIC = 25 μg/mL
Inhibitory concentration MIC (MIC90) (C. krusei CMC-2002): MIC = 25 μg/mL
Inhibitory concentration MIC (MIC90) (C. krusei spp): MIC = 10-25 μg/ml
Inhibitory concentration MIC (MIC90) (C. lusitaniae CMC-1944): MIC = 50 μg/mL
Inhibitory concentration MIC (MIC90) (C. metapsilosis): MIC = 25 μg/mL
Inhibitory concentration MIC (MIC90) (C. parapsilosis CBS #57): MIC = 25-50 μg/mL
Inhibitory concentration MIC (MIC90) (C. parapsilosis CBS #61): MIC = 25-50 μg/mL
Inhibitory concentration MIC (MIC90) (C. parapsilosis CBS #7): MIC = 25-50 μg/mL
Inhibitory concentration MIC (MIC90) (C. parapsilosis CBS-604; C. parapsilosis CBS-604, second listing): MIC = 25 μg/ml
Inhibitory concentration MIC (MIC90) (C. parapsilosis CBS-604): MIC = 25 μg/mL
Inhibitory concentration MIC (MIC90) (C. parapsilosis CMC-2039; C. parapsilosis CMC-2039, second listing): MIC = 25 μg/ml
Inhibitory concentration MIC (MIC90) (C. parapsilosis CMC-2039): MIC = 25 μg/mL
Inhibitory concentration MIC (MIC90) (C. tropicalis (LUMC)): MIC = 25 μg/mL
Inhibitory concentration MIC (MIC90) (C. tropicalis (LUMC); second listing): MIC = 25 μg/ml
Inhibitory concentration MIC (MIC90) (C. tropicalis CBS-94; C. tropicalis CBS-94, second listing): MIC = 50 μg/ml
Inhibitory concentration MIC (MIC90) (C. tropicalis CBS-94): MIC = 50 μg/mL
Inhibitory concentration MIC (MIC90) (C. tropicalis CMC-2041; C. tropicalis CMC-2041, second listing): MIC = 50 μg/ml
Inhibitory concentration MIC (MIC90) (C. tropicalis CMC-2041): MIC = 50 μg/mL
Inhibitory concentration MIC (MIC90) (C. tropicalis spp.): MIC = 12.5-100 μg/mL
Inhibitory concentration MIC (MIC90) (Aspergillus spp): MIC = 2.5-12.5 μg/ml
Inhibitory concentration MIC (MIC90) (Botrytis cinerea): MIC = 16 μM
Inhibitory concentration IC50 (Rhizoctonia solani): IC50 = 121 μg/mL
Inhibitory concentration IC50 (Sclerotium rolfsii): IC50 = 231 μg/mL
Inhibitory concentration MIC (MIC90) (S. epidermidis Type 2163): MIC = 3.1 μg/ml
